# Marks after values point to notes of the source that are not given here.
# How the values were obtained:
# [1] = Selected chemical properties of peat soil water and urea; type: physicochemical; details: glass electrode
# Description: Peat soil water (waste water) was collected from natural flows of peat water at Suai Miri Sarawak, Malaysia. The mineral soil used was Bekenu Series (Fine loamy, siliceous, isohyperthermic, red-yellow to yellow Tipik Tualemkuts). It was sampled in an undisturbed area of Universiti Putra Malaysia Bintulu Sarawak Campus, Malaysia using an auger. The soil taken at 0-15 cm depth was air dried and ground to pass 2.0 mm sieve for laboratory experiment. The soil texture was determined using the hydrometer method (Bouyoucos, 1962) and its field capacity and bulk density determined by the method described by Tan (2005). The pH of the soil was determined in a 1:2 soil:distilled water suspension and KCl using a glass electrode. However, the pH of the peat soil water was determined directly from filtered samples using a glass electrode. The soil total carbon, N and organic matter were determined using LECO CHNS Analyzer (Leco Truspec Micro Elemental Analyzer CHNS, New York). Soil available P was extracted using the double acid method (Tan, 2005) followed by blue method (Murphy and Riley, 1962). The Kjedhal method was used to determine total N. Exchangeable cations were extracted using leaching method and their concentrations were afterwards determined using followed Atomic Absorption Spectrometry (AAS). Soil CEC was determined by the leaching method followed by steam distillation.
# [2] = system: Hybrid no. 5 variety (Zea mays L.); experiment: Greenhouse pot experiment: dry weight, N, P, K uptake and use efficiency of maize plant; type: in vivo; details: 56 days after planting
# Description: A pot experiment was conducted in a greenhouse of Universiti Putra Malaysia Bintulu Sarawak Campus, Malaysia using randomized complete block design (RCBD) with three replications. Each pot size was 22×28 cm. Each was filled with 10 kg soil (based on bulk density of the soil). Hybrid no. 5 variety (Zea mays L.) was used as the test crop. Its N, P, and K requirement were 60 kg N, 60 kg P2O5 and 40 kg K2O (130 kg ha^−1 urea: 130 kg ha^−1 TSP: 67 kg ha^−1 KCl). The fertilizer requirement was scaled down to per pot basis equivalent to 2.02 g of urea, […]. The volume of water used for each pot was based on field capacity (70%). The three treatments devised for this experiment were as follows: • i. No fertilizer (T0) • ii. 2.02 g urea (T1) • iii. 2.02 g urea+7 L peat soil water (T2)
# All treatments were applied on the 10th day after planting (DAP). However TSP and KCl which were common to all the treatments were applied on 10 DAP and 28 DAP. The plants were monitored until tassel stage. Tassel stage is the maximum growth stage for plants before they enter productive stage.
# Harvesting was done on the 56th DAP. The whole plant including leaves and stem were harvested. The remaining roots in the soil were removed carefully. They were cleaned using tap and distilled water. The plant parts (leaves, stem and roots) were then oven-dried at 60° C. until constant weight was attained afterwhich they weighed using a digital balance. Soil samples were also taken from the pots, air-dried, pounded and sieved to a pass 2 mm before they were analyzed for pH, exchangeable cations (K, Mg, and Ca), total carbon, total N, available P, exchangeable ammonium and available nitrate, using standard procedures. Each plants part was ground and analyzed for total K, Mg, Ca, Na, N, and P.
# Nitrogen, P and K uptake in leaves, stem and roots were determined by multiplying the concentration with the dry weight of the plant parts. Nitrogen, P and K use efficiency were determined by the formula of Pomares-Gracia and Pratt (1987).
# Analysis of variance (ANOVA) was used to test the effect of treatments while means of treatments were compared using Duncan's Test. Statistical Analysis System (SAS Ver. 9.2) was used for the statistical analysis.
smiles,measurement,setting,value
"NC(N)=O [Treatment T1, urea]",pHw,[1]; listed as Urea,8.00
same,pHw,[1]; listed as urea,basic
same,"dry weight of maize plant, Leaves",[2],6.00^b g plant^−1
same,"dry weight of maize plant, Roots",[2],3.18^b g plant^−1
same,"dry weight of maize plant, Stems",[2],5.71^d g plant^−1
same,"dry weight of maize plant, Total",[2],14.89^b g plant^−1
same,K use efficiency of maize plant,[2]; Leaves,1.17^a %
same,N use efficiency of maize plant,[2]; Leaves,1.26^a %
same,P use efficiency of maize plant,[2]; Leaves,0.31^a %
same,K use efficiency of maize plant,[2]; Roots,1.75^a %
same,N use efficiency of maize plant,[2]; Roots,0.37^a %
same,P use efficiency of maize plant,[2]; Roots,0.40^a %
same,K use efficiency of maize plant,[2]; Stem,2.17^a %
same,N use efficiency of maize plant,[2]; Stem,0.24^d %
same,P use efficiency of maize plant,[2]; Stem,0.32^a %
same,K use efficiency of maize plant,[2]; Total,5.09^a %
same,N use efficiency of maize plant,[2]; Total,1.87^a %
same,P use efficiency of maize plant,[2]; Total,1.03^a %

# Reference: patent US9139485B2, “Plant treatment agent” (UNIVERSITI PUTRA MALAYSIA, priority 2011, dated 2015)
